The values that follow come from ChEMBL document CHEMBL1949619, “Synthesis of potent oxindole CDK2 inhibitors” (Bioorg Med Chem, 2003).

Test [1] deals with Cyclin-dependent kinase 2/cyclin E1 (Homo sapiens, UniProt P24941). The experiment in a line: Inhibition of human CDK2/CyclinE expressed in baculovirus insect cell system using Rb as substrate after 30 mins by scintillation counting.
For the next test, the system named is RKO. The experiment in a line: Antiproliferative activity against human RKO cells after 5 days by MTT assay. The class given is functional, cell-based. Particulars: 120 h. For orientation: Formazan colour is commonly taken as a measure of viable cells.
The subject of the next test is MDA-MB-435. The experiment in a line: Antiproliferative activity against human MDA-MB-435 cells after 5 days by MTT assay. Conditions: MDA-MB-435, 120 h. Type of test: functional, cell-based.
Test [2] can be described thus: Cell cycle arrest in human 1043SK cells assessed as accumulation at G1 phase measuring reduction of BrdU incorporation of into cellular DNA by ELISA. The class given is functional, cell-based. For orientation: Incorporation of labelled thymidine or its analogues reports DNA synthesis.

On to `COc1cc[nH]c1/C=C1\C(=O)Nc2ccc([N+](=O)[O-])c(N[C@H]3CC[C@H](O)C3)c21` (racemic), for which the IC50 came out at 5 nM in test [1], 339 nM with RKO and 1000 nM with MDA-MB-435.

With `COc1cc[nH]c1/C=C1\C(=O)Nc2ccc([N+](=O)[O-])c(N3CC[C@@H](N)C3)c21`, the half-maximal inhibitory concentration (IC50) is 3 nM in test [1], less than 10 nM in the test with RKO and less than 10 nM in the test with MDA-MB-435.

In the case of `COc1ccc2c(c1)/C(=C/c1[nH]ccc1OC)C(=O)N2`, the IC50 is 209 nM in test [1], 3860 nM in the test on RKO and 8080 nM in the test with MDA-MB-435.

In test [1], `COc1cc[nH]c1/C=C1\C(=O)Nc2ccccc21` yielded an IC50 of 5360 nM.

Turning to `COc1cc[nH]c1/C=C1\C(=O)Nc2ccc([N+](=O)[O-])c(N3CC[C@@H](NC=O)C3)c21`, the IC50 in test [1] turned out to be 3 nM; with RKO, 32 nM; in the test with MDA-MB-435, 33 nM.

`COc1cc[nH]c1/C=C1\C(=O)Nc2ccc([N+](=O)[O-])c(N3CCC(O)CC3)c21`: the IC50 is 4 nM in test [1], less than 10 nM in the test on RKO and 46 nM in the test on MDA-MB-435.

Take `COc1cc[nH]c1/C=C1\C(=O)Nc2ccc([N+](=O)[O-])c(N3CC[C@H](C(N)=O)C3)c21`: the IC50 in test [1] was 5 nM; in the test on RKO, 50 nM; in the test on MDA-MB-435, 163 nM.

Regarding `COc1cc[nH]c1/C=C1\C(=O)Nc2ccc([N+](=O)[O-])c(N3CCC(N)CC3)c21`, the results for the IC50 (in test [1]; in the test with RKO; in the test on MDA-MB-435) were 5 nM, less than 10 nM and less than 10 nM, respectively.

With `COc1cc[nH]c1/C=C1\C(=O)Nc2ccc([N+](=O)[O-])c(N3CCCC(O)C3)c21` (centres undefined), the values for the IC50 (in test [1]; with RKO; with MDA-MB-435) were 2 nM, 105 nM and 250 nM, respectively.

For `COc1cc[nH]c1/C=C1\C(=O)Nc2ccc([N+](=O)[O-])c(N[C@H]3CC[C@H](N)C3)c21` (racemic), the IC50 is 5 nM in test [1], less than 15 nM with RKO and 61 nM in the test with MDA-MB-435.

Turning to `COc1cc[nH]c1/C=C1\C(=O)Nc2ccc([N+](=O)[O-])c(N3CC[C@H](O)C3)c21`, the IC50 in test [1] came out at 5 nM; with RKO, 37 nM; in the test with MDA-MB-435, 104 nM.

For `COc1cc[nH]c1/C=C1\C(=O)Nc2ccc([N+](=O)[O-])c(N3CC[C@@H](O)C3)c21`, the IC50 in test [1] was 3 nM; with RKO, 32 nM; with MDA-MB-435 it was 88 nM; in test [2] it was 830 nM.

For `COc1cc[nH]c1/C=C1\C(=O)Nc2ccc([N+](=O)[O-])c(N3CCNC(C(N)=O)C3)c21` (centres undefined), the IC50 in test [1] was determined as 28 nM; with RKO, 449 nM; with MDA-MB-435, 1270 nM.

`COc1cc[nH]c1/C=C1\C(=O)Nc2ccc([N+](=O)[O-])c(NC3CCNCC3)c21`: the figures for the IC50 (in test [1]; in the test on RKO; in the test on MDA-MB-435) were 5 nM, 24 nM and 139 nM, respectively.

For `COc1cc[nH]c1/C=C1\C(=O)Nc2ccc([N+](=O)[O-])c(-n3ccnc3)c21`, the half-inhibitory concentration (IC50) was 1750 nM in test [1], 3920 nM with RKO and more than 30000 nM in the test on MDA-MB-435.

With `COc1cc[nH]c1/C=C1\C(=O)Nc2ccc(F)cc21`, the IC50 in test [1] is 847 nM; in the test with RKO it was 11900 nM; in the test with MDA-MB-435, more than 30000 nM.

Regarding `COc1cc[nH]c1/C=C1\C(=O)Nc2ccc([N+](=O)[O-])c(N[C@H]3CC[C@H](O)CC3)c21`, the IC50 is 6 nM in test [1], 8040 nM in the test with RKO and 8550 nM in the test on MDA-MB-435.

As to `COc1cc[nH]c1/C=C1\C(=O)Nc2ccc([N+](=O)[O-])cc21`, the 50% inhibitory concentration (IC50) in test [1] is 39 nM; in the test with RKO, 692 nM; with MDA-MB-435, 7460 nM.

As for `COc1cc[nH]c1/C=C1\C(=O)Nc2ccc([N+](=O)[O-])c(N3CCCC(CO)C3)c21` (centres undefined), the IC50 in test [1] was 2 nM; in the test on RKO it was 124 nM; in the test with MDA-MB-435, 441 nM.

`COc1cc[nH]c1/C=C1\C(=O)Nc2ccc([N+](=O)[O-])c(N3CCCC(C(N)=O)C3)c21` (centres undefined): the IC50 in test [1] came out at 6 nM; in the test on RKO, 192 nM; in the test with MDA-MB-435, 623 nM.

By IC50 is commonly meant the concentration that inhibits the measured activity by half.
